Data set [1] can be described thus: Exposure of powder sample at room temperature to air (hygroscopicity, storage stability). It counts as physicochemical. As to conditions: for State of powder after exposure to air: exposed to air. The source says:
The L-arginine butyrate prepared using ethanol as the sole solvent was a white to off-white powder.
The L-lysine butyrate prepared using ethanol as the sole solvent was a light, pale yellow to yellow powder.

The nature of data set [2]: Study to assess nootropic and related properties after oral administration. It counts as in vivo, human. The protocol: In another experiment, L-lysine butyrate in a dose range of 500 mg to 5,000 mg was administered as an aqueous solution to six individuals aged between 22 and 55 years, comprising two women and four men. […] The observed effects were dose-dependent, with larger doses of L-lysine butyrate providing greater effects and longer duration, lasting up to four hours.
In another experiment, L-lysine butyrate in a dose of 2 g, and on a separate occasion 5 g, was administered in encapsulated form, to 2 individuals. A further individual was administered L-lysine butyrate in a dose of 2 g in encapsuled form.

[3] abbreviates: seven (7) days, room temperature.

Take “L-arginine butyrate [reference compound]”: the Hygroscopicity result in data set [1] is listed as “quite hygroscopic”. The “State of powder after exposure to air” value in data set [1] (24 hours, room temperature) is listed as “formed hard, rock-like clumps”; in data set [1] (setting [3]), “significantly hydrated into, large solid masses”.
As to L-lysine butyrate, the “Time to reported effects after administration” value in data set [2] (500 mg to 5,000 mg as aqueous solution, six individuals) is “thirty”. In addition, the “Effects reported by participants” value in data set [2] (500 mg to 5,000 mg as aqueous solution, six individuals, dose-dependent) is “more relaxed, less tired, more sociable, and able to concentrate on tasks more effectively”. The Duration of effects entry in data set [2] (500 mg to 5,000 mg as aqueous solution, larger doses longer duration) is recorded as “up to four”. For the same substance, the Analgesic effect entry in data set [2] (oral administration, 2 g encapsulated, two of the individuals) was “eliminating minor-to-moderate pain and discomfort”. The Mental effects entry in data set [2] (single oral administration of 2 g, encapsulated form) is on record as “pleasant mental effects”. Moreover, the “Mental effects (undesirable)” value in data set [2] (single oral administration of 5 g, encapsulated form) is on record as “undesirable mental effects”. In data set [2] (small dosage of 25 mg or 50 mg), the “Calming effect in a baby” value is given as “effective to calm a baby”. Moreover, the Hygroscopicity entry in data set [1] is recorded as “not hygroscopic”. Besides, the “State of powder after exposure to air” value in data set [1] (24 hours, room temperature) was “remained a fine, free-flowing yellow powder”; in data set [1] (setting [3]) it was “remained a fine, free-flowing powder with no color change”; in data set [1] (thirty (30) days, room temperature), “remained a fine, free-flowing powder”. The “Storage stability of the solid” value in data set [1] (room temperature) is given as “stable to storage at room temperature”.

The record behind these values is patent US12226383B1, “Compositions containing short-chain fatty acid, methods of use, and methods of making thereof” (Velocity Life Sciences, LLC, priority 2024, dated 2025).
